Here are results for five molecules from US12486229B2, “Indole derivative and application thereof” (SHANGHAI MEDICILON INC., priority 2020, dated 2025).

One series addresses T1, S1P1 (Homo sapiens, UniProt P21453).
T1 construct: host or cells: U2OS (human osteosarcoma) cell line, U2OS-EDG1
The experiment in a line: S1P1 overexpression cell activity by β-arrestin assay (U2OS-EDG1). Conditions: U2OS-EDG1 cells. The series is classed as cell-based. The protocol:
The following experiments were conducted to detect the activity of the compound on S1P1 overexpression cells by β-arrestin assay. [table] [table] 3. Experimental Steps Day 1: Cell Seeding Plate and Compound Treatment • (1) Firstly, the compound was diluted by a 4-fold gradient into 10 concentration points from the concentration of 10 μM in the culture plate by using NL fluid transfer system, with 2 replicates at each concentration point. • (2) Cells were resuspended by using FreeStyle™ expression medium, and the cell density was adjusted to 7,500 cells per 40 μL suspension. The samples with test concentration were added into the well of the cell culture plate, and 40 μL cell suspension was added into the corresponding well. • (3) The above cell plates were incubated overnight in a CO2 incubator with 5% (volume fraction) at 37° C. Day 2: Detection and Data Analysis • (1) The buffer solution was prepared according to the preparation method in the instructions of LiveBLAser™-fluorescence resonance energy transfer B/G loading kit. • (2) 8 μL detection reagent was added to each well, which were shaken and mixed evenly for 1 minute, centrifugated at 1,000 rpm for 10 seconds, and incubated at 23° C. in dark for 2 hours. • 3) Detection was performed by multimode reader. • 4) The PrismDemo software was used to analyze the data and fit the curve. 4. Experimental Results

Series [1] deals with TNBS induced ulcerative colitis in rats. The experiment in a line: TNBS induced ulcerative colitis in rats. The series is classed as in vivo, rat. Particulars: for Colon length / Colon weight / Colon weight/colon length / Ulcer area: day 8; for General anatomical view of colon, from excellent to poor: 7 days administration, SASP 360, Example 3 and Etrasimod 3, Ozanimod 10 mg/kg; for Drug efficacy intensity (colon weight): oral gavage for 7 consecutive days, doses as given in ranking. The protocol: Preparation of molding agent: 5 mL TNBS and 8.953 mL anhydrous ethanol and 26.741 sterilized water for injection. • TNBS comes from Dalian Meilun Biotechnology Co., Ltd. • Source of SPF male SD rats: Shanghai Slake Experimental Animal Co., Ltd. • Animal age at the beginning of the experiment: 8 to 10 weeks; • Animal weight at the beginning of the experiment: about 250 g; • Adaptation time: 5 to 7 days; • Animals were fasted (only water) for 24 hours. After inhalation anesthesia with isoflurane, all rats were perfused with 0.5 mL TNBS ethanol solution per rat (18 mg TNBS/rat) via rectum with latex hose, with the length of the hose entering the rectum of about 8 cm. After withdrawing the hose, the rats remained under isoflurane anesthesia, and kept in the inclined state of hip elevation for 15 minutes.
The rats after modeling were randomly divided into 5 groups: model group, positive control group using drug sulfasalazine (SASP, 360 mg/kg), test substance group using the compound of Example 3 (3 mg/kg), test substance group using Etrasimod (3 mg/kg), test substance group using Ozanimod (10 mg/kg).
At 3 hours after modeling, the animals in each group were administrated with medicine solution by oral gavage (Table 1), 5 mL/kg body weight (10 mL/kg in sulfasalazine group), once a day, for 7 consecutive days, and the feces of the animals and whether there is death were observed every day. On the 8th day, the animals were killed under CO2 overdose anesthesia followed by being dissected, the entire colon tissue was extracted, the contents of the colon were cleaned after longitudinal dissection along the mesenteric side, the colon was weighed and measured for its length, the area of the ulcer was measured, and the general situation was observed and photos were taken. Finally, the colon was fixed in 10% formalin, and H&E staining and histopathological analysis (inflammation, goblet cells, lesion depth, ulcer degree, crypt abscess) were performed.
Wherein, the compound of Example 3 of the invention, purity: 99.74%. • Etrasimod, prepared according to the literature method (the second isomer of Example 1.29 in WO2010/011316A1), purity: 98.47%. • Ozanimod, prepared according to the literature method (compound 86 in WO2011/060392A1), purity: 99.78%. • Sulfasalazine enteric-coated tablets, produced by Shanghai Fuda Pharmaceutical Co., Ltd., 0.25 g/tablet. Enteric coated tablets show yellow to brownish yellow after the coating is removed. • Solutol: Beijing Fengli Jingqiu Pharmaceutical Co., Ltd. • Solvent preparation: • DMSO, Solutol and 0.9% sodium chloride solution were mixed according to the volume ratio of 5:10:85 to prepare the solvent.
Preparation of compound of Example 3 and Etrasimod solution: 27 mg of test substances were taken respectively and dissolved in 45 mL of solvent to obtain corresponding test substance solution.
Ozanimod: 90 mg Ozanimod was dissolved in 45 mL solvent to obtain Ozanimod solution.
Preparation of SASP solution: six sulfasalazine enteric-coated tablets after grinding were added to 41.7 mL 0.5% CMC-Na, and then dissolved by ultrasonic to obtain SASP solution.
Due to the excipient factor of SASP drug preparation, the concentration should not be too high when suspended in 0.5% CMC-Na, otherwise the suspension was uneven and the mobility was poor, so the dose volume of SASP was doubled compared with the compound of Example 3 and Etrasimod.

The test system of series [2] is DSS induced ulcerative colitis in mice. Kind of series: DSS induced ulcerative colitis in mice. Further details: key to Total stool scores: sum of shape (1-3) and bleeding (1-3) levels; normal = 1 each. Particulars: for Weight / Total stool scores: 20 mg/kg oral gavage once a day. Format: in vivo. The protocol: Molecular weight of DSS dextran sodium sulfate: 36,000 to 50,000, From MP Biomedical Company.
Preparation of molding agent: preparation of 3.5% DSS: 49 g DSS plus 1,400 mL high-temperature sterilized water.
Source of SPF male C57BL/6 mice: Beijing Weitong Lihua Experimental Animal Technology Co., Ltd. • Animal age at the beginning of the experiment: 6 to 8 weeks; • Animal weight at the beginning of the experiment: 22 to 25 g; • Adaptation time: 3 to 5 days;
The mice were divided into groups according to their weight, 10 mice in each group. The mice were administrated once a day by gavage (or blank) according to the following Table 4.
Animals were given 3.5% DSS solution for free drinking water modeling (the day of modeling was recorded as day 1), and the modeling agent was replaced once every two days for 7 consecutive days, and then (day 8) 3.5% DSS was replaced with ordinary drinking water for another 1 day.
• Preparation of solvent 1: 0.66 mL DMSO, 1.32 mL Solutol and 11.22 mL Saline were mixed to prepare 13.2 mL of solvent 1; • Preparation of solvent 2: 0.3 mL DMSO, 0.6 mL Solutol and 5.1 mL Saline were mixed to prepare 6 mL of solvent 2; • Preparation of solution of compound of Example 3: 39.6 mg of compound of Example 3 was dissolved in 13.2 mL of solvent 1 to obtain the solution of compound 1 of Example 3, the solution 1 of compound of Example 3 was diluted with solvent 1 to prepare the solution of compound of Example 3 with concentrations of 2 mg/mL, 1 mg/mL, and 0.6 mg/mL; • Etrasimod solution: 6 mg of Etrasimod was dissolve in 6 mL of solvent 2 to obtain Etrasimod solution; • Ozanimod solution: 12 mg of […] was dissolved in 6 mL solvent 2 to obtain Ozanimod solution; • Note: Prepare once every two days, and store in refrigerator at 4° C.
Wherein, the purity of compound of Example 3 was 99.74%, Ozanimod and Etrasimod were prepared by the method described in Example 8, and the purities were 99.78% and 98.47% respectively.
The mouse stool was observed on its shape, bleeding condition every two days, and scored. Scoring criteria for stool condition: shape: normal (level 1), soft stool (level 2), and loose stool (level 3); traits: normal (level 1), faint redness (level 2), and bloody stool visible to the unaided eye (level 3).
After the last administration (8 consecutive days), the animals were dissected on the next day (day 9), the colon was separated, the whole colon was photographed, and the colon length was measured. Then the colon was cut longitudinally along the mesenteric side to remove the contents, which was weighed and observed on the integrity of the colonic mucosa. The colon was then fixed in 10% formalin.

Where [3] appears, read: 10 mg/kg oral gavage once a day for 7 days.
The mark [4] stands for this setting: 360 mg/kg oral gavage once a day for 7 days.

T1 sequence (P21453 whole entry): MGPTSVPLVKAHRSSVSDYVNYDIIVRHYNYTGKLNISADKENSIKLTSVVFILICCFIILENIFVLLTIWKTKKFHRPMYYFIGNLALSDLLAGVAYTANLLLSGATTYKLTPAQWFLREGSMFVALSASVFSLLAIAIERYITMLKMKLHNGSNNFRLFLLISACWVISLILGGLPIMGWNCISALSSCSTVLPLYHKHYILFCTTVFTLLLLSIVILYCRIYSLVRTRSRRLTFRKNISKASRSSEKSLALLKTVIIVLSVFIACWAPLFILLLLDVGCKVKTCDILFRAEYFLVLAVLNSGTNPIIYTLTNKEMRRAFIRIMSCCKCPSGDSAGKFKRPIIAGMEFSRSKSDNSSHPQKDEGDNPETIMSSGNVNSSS

At S1P1, `Cc1cc(OCc2ccc(C3CCCC3)c(C(F)(F)F)c2)cc2ccn(CCC(=O)O)c12` [Compound of Example 1, 3-(5-((4-cyclopentyl-3-(trifluoromethyl)benzyl)oxy)-7-methyl-1H-indole-1-yl)propionic acid] had a 50% inhibitory concentration (IC50) of 0.51 nM.

`O=C(O)Cn1ccc2cc(OCc3ccc(C4CCCC4)c(C(F)(F)F)c3)ccc21` [Compound of Example 6, 2-(5-((4-cyclopentyl-3-(trifluoromethyl)benzyl)oxy)-1H-indole-1-yl)acetic acid] registered an IC50 against S1P1 of 175 nM.

In series [1] (setting [3]), `CC(C)Oc1ccc(-c2nc(-c3cccc4c3CC[C@@H]4NCCO)no2)cc1C#N` [Ozanimod, reference compound] gave a Colon length of 13.09 ± 0.5 cm. Further, the Colon weight in series [1] (setting [3]) was 3.30 ± 0.53 g; in series [2] (20 mg/kg oral gavage once a day for 8 days, day 9), 0.157 ± 0.01 g. Besides, the Colon weight/colon length in series [1] (setting [3]) came out at 0.25 g/cm. The same molecule displayed a Ulcer area in series [1] (setting [3]) of 498.04 ± 202.49 mm^2. Moreover, the “General anatomical view of colon, from excellent to poor” value in series [1] is “group using compound of Example 3>group using sulfasalazine>group using Etrasimod>group using Ozanimod”. Moreover, the Weight in series [1] (Day 1, 10 mg/kg oral gavage once a day) came to 247.1 ± 0.64 g; in series [1] (Day 2, 10 mg/kg oral gavage once a day) it was 225.6 ± 0.65 g; in series [1] (Day 3, 10 mg/kg oral gavage once a day), 225.1 ± 0.86 g; in series [1] (Day 4, 10 mg/kg oral gavage once a day), 225.9 ± 1.39 g; in series [1] (Day 5, 10 mg/kg oral gavage once a day) it was 231.3 ± 1.63 g; in series [1] (Day 6, 10 mg/kg oral gavage once a day), 239 ± 1.72 g. Further, the Weight in series [1] (Day 7, 10 mg/kg oral gavage once a day) stood at 247.8 ± 1.74 g; in series [1] (Day 8, 10 mg/kg oral gavage once a day), 262.8 ± 1.22 g; in series [2] (Day 1), 21.2 ± 0.19 g; in series [2] (Day 2) it was 21.7 ± 0.25 g; in series [2] (Day 3) it was 21.7 ± 0.26 g; in series [2] (Day 4), 21.9 ± 0.33 g. For the same molecule, the Weight in series [2] (Day 5) was 21.5 ± 0.27 g; in series [2] (Day 6), 20.6 ± 0.54^ g; in series [2] (Day 7), 18.9 ± 0.54 g; in series [2] (Day 8), 18.0 ± 0.5 g; in series [2] (Day 9) it was 16.5 ± 0.49 g. Besides, the “Drug efficacy intensity (colon weight)” value in series [1] is given as “group using the compound of Example 3 (3 mg/kg)>group using Etrasimod (3 mg/kg)>group using sulfasalazine (360 mg/kg)>model group>group using Ozanimod (10 mg/kg)”. The “Colon length compared with model group” value in series [2] (20 mg/kg) is reported as “longer than that of the model group”. Besides, the “Effect on blood stool and loose stool compared with model group” value in series [2] (20 mg/kg, day 9) is given as “had not significant improvement”. Moreover, the Total stool scores in series [2] (Day 7) was 5.9 ± 0.11; in series [2] (Day 8) it was 6.0 ± 0; in series [2] (Day 9) it was 5.1 ± 0. The “Number of dead animals” value in series [2] (by the end of the test period, 10 mice per group, doses as Table 4 (Ozanimod 20 mg/kg)) is listed as 3.

In the case of `O=C(O)c1cc(/N=N/c2ccc(S(=O)(=O)Nc3ccccn3)cc2)ccc1O` [SASP, Sulfasalazine], the Colon length in series [1] (setting [4]) was 13.89 ± 0.45 cm. The molecule also returned a Colon weight in series [1] (setting [4]) of 3.35 ± 0.74 g. In addition, the Colon weight/colon length in series [1] (setting [4]) is reported as 0.24 g/cm. The Ulcer area in series [1] (setting [4]) was determined as 320.23 ± 167.1 mm^2. Also, in series [1], the “General anatomical view of colon, from excellent to poor” value is given as “group using compound of Example 3>group using sulfasalazine>group using Etrasimod>group using Ozanimod”. Further, the Weight is recorded as 250.1 ± 0.48 g in series [1] (Day 1, 360 mg/kg oral gavage once a day); 226.4 ± 0.34 g in series [1] (Day 2, 360 mg/kg oral gavage once a day); 227.6 ± 1.13 g in series [1] (Day 3, 360 mg/kg oral gavage once a day); 231.8 ± 1.59 g in series [1] (Day 4, 360 mg/kg oral gavage once a day); 238.6 ± 1.83 g in series [1] (Day 5, 360 mg/kg oral gavage once a day); 247.3 ± 1.91 g in series [1] (Day 6, 360 mg/kg oral gavage once a day). Besides, the Weight in series [1] (Day 7, 360 mg/kg oral gavage once a day) is 255 ± 2.01 g; in series [1] (Day 8, 360 mg/kg oral gavage once a day) it was 267.9 ± 1.9 g. Moreover, the “Weight course compared with model group” value in series [1] (SASP 360 mg/kg, Example 3 and Etrasimod 3 mg/kg, oral once a day) is given as “a certain tendency to inhibit the weight loss”. Further, the “Drug efficacy intensity (colon weight)” value in series [1] is “group using the compound of Example 3 (3 mg/kg)>group using Etrasimod (3 mg/kg)>group using sulfasalazine (360 mg/kg)>model group>group using Ozanimod (10 mg/kg)”.

As to `O=C(O)CCCn1ccc2cc(OCc3ccc(C4CCCC4)c(C(F)(F)F)c3)cc(Cl)c21` [Compound of Example 5, 4-(7-chlorine-5-((4-cyclopentyl-3-(trifluoromethyl)benzyl)oxy)-1H-indole-1-yl)butyric acid], on S1P1, the concentration for half-maximal inhibition (IC50) came out at 0.251 nM.

For orientation: IC50 means the concentration at which inhibition is half-maximal.
